Consider one compound from article PMC8143347, “Metabolism and Interspecies Variation of IMMH-010, a Programmed Cell Death Ligand 1 Inhibitor Prodrug” (Pharmaceutics, 2021).

pIC50: −log10 of the molar value. A value given as a limit tells only on which side of the number the result lay.

Series [1] is described as follows: Body weight in B16F10 model. Here is the method: The antitumor activity of IMMH-010 was evaluated by B16F10 melanoma and MC38 colon carcinoma xenograft models. The B16F10 and MC38 cells were resuspended in saline (1.5 × 10^6 cells/0.2 mL saline) and injected subcutaneously into the right flanks of each mouse on day 0. The treated mice received once-daily oral administration of IMMH-010 maleate (1.25, 2.5, 5, and 10 mg/kg, n = 10) by oral gavage (PO) for 19 consecutive days, whereas the control mice received vehicle (0.5% carboxymethyl cellulose, n = 10). The mice in the positive control group received the anti-mouse PD-L1 antibody (696618M2, Bio X Cell, West Lebanon, NH, USA) at 10 mg/kg intraperitoneally every 3 days (n = 10). The first-line antineoplastic drug cyclophosphamide (CTX) was administered at doses of 80 and 40 mg/kg weekly in the B16F10 and MC38 models (n = 10), respectively. After the last treatment, on day 19, the mice were sacrificed, and the tumor and spleen were stripped and weighed. The tumor growth inhibition (TGI) was calculated as TGI = (1 − treatment group tumor weight/vehicle group tumor weight) × 100.

The nature of series [2]: Metabolism in monkey liver S9 fractions. It is filed as in vitro ADME. Here is the method: (§1) IMMH-010 metabolism was compared in human, monkey, dog, and rat liver S9 homogenates. IMMH-010 (10 μM) was incubated with liver S9 homogenate protein (0.5 mg protein/mL) and a reduced nicotinamide adenine dinucleotide phosphate (NADPH) regenerating system in a final volume of 0.2 mL Tris-HCl buffer (50 mM, pH 7.4) containing 5 mM MgCl2. The reactions were performed in triplicate. After 2 min of preincubation at 37 °C, reactions were initiated by the addition of IMMH-010 (10 μM). The samples were collected 0, 5, 10, and 20 min after incubation, 2 volumes of acetonitrile were added to terminate the reaction. After vortexing and centrifugation, IMMH-010, YPD-29B, M3, and M4 in the supernatant were analyzed by LC-MS/MS.
(§2) All statistics were calculated using GraphPad Prism 8.0 software (San Diego, CA, USA) designed for one-way ANOVA. Pharmacokinetic parameters were calculated with a non-compartmental analysis using WinNonlin Version 6.3 (Pharsight, Mountain View, CA, USA). ADMET predictor V10.0 (Simulations Plus, Inc., Lancaster, CA, USA) and Microsoft Excel (Microsoft, Redmond, WA, USA) were used to process the data (i.e., half-life (t1/2) and hepatic clearance (CLhep) determination). Data were expressed as means ± standard deviations (SD). Results were considered statistically significant if the p-value <0.05, <0.01 and <0.001.

Series [3] in a line: Metabolism in dog liver S9 fractions. The class given is in vitro ADME. As for the experimental part:
as §1, §2

The next series relates to PD-1/PD-L1. The following applies: stated in introduction, source not given; read-out: PD-L1 inhibitory activity IC50; cited from earlier work.
Series [4] in a line: IMMH-010 stability in rat plasma. The class given is in vitro ADME. Conditions: 10 μM, 4 °C, 60 min. As for the experimental part:
(§3) IMMH-010 hydrolysis was investigated in human, monkey, rat, and mouse plasma. IMMH-010 (1 μM) was incubated in human, monkey, or […] plasma (0.2 mL) at 37 °C for 120 min. IMMH-010 (10 μM) was incubated in rat or mouse plasma (0.2 mL) at 4 °C for 60 min. The experiments were performed in triplicate. The reactions were initiated by the addition of IMMH-010 (10 μM). After incubation, the reactions were stopped by adding 2 volumes of ice-cold acetonitrile. After vortexing and centrifuging, the concentrations of IMMH-010 and YPD-29B in the supernatant were determined by liquid chromatography with tandem mass spectrometry (LC-MS/MS). The compound olmesartan (10 μM), a substrate of paraoxonase 1, was set as the positive control.

Series [5] in a line: PK study in male cynomolgus monkeys. It is filed as in vivo, cynomolgus monkey. The following applies: cynomolgus monkey, plasma, single oral IMMH-010 maleate 5 mg/kg. As for the experimental part:
IMMH-010 maleate was suspended with 0.5% carboxymethyl cellulose to make a 1 mg/mL suspension for PO gavage. Four male cynomolgus monkeys received a single oral dose of IMMH-010 maleate (5 mg/kg). Serial blood samples were collected upto 48 h. The plasma was separated and the plasma concentrations of IMMH-010 and YPD-29B were determined by LC-MS/MS.
LC-MS/MS was performed using a triple quadrupole mass spectrometer (API 4000, AB Sciex, Framingham, MA, USA) with an ultra-performance liquid chromatography system (LC-30A, Shimadzu, Kyoto, Japan). Analyst 1.6.2 software (AB Sciex) was used for data acquisition and analysis. Mobile phase A was 1 mM ammonium acetate and mobile phase B was methanol. The mobile phase was delivered with the following gradient elution profile: 0–2.8 min, 70% B; 2.9 min, 85% B; 3 min, 90% B; 3.1–6.8 min, 100% B; 6.9–12 min, 70% B. The flow rate was 0.3 mL/min, and the column oven was maintained at 35 °C. The specific transitions monitored were 641.3 → 494.2 for IMMH-010, 597 → 155 for YPD-29B, 512 → 247 for M3, and 524 → 246 for M4.
as §2

The nature of series [6]: IMMH-010 stability in mouse plasma. It is filed as in vitro ADME. The following applies: 10 μM, 4 °C, 60 min. Here is the method: as §3

In the case of `CC(C)OC(=O)[C@H](CO)NCc1cc(Cl)c(OCc2cccc(-c3ccccc3)c2Br)cc1OCc1cccnc1` [IMMH-010], the “Body Weight (g) X ± SD Finish” value in series [1] (B16F10, IMMH-010 maleate 1.25 mg/kg PO once daily 19 days) stood at 20.2 ± 1.4 g; in series [1] (B16F10, IMMH-010 maleate 2.5 mg/kg PO once daily 19 days), 20.3 ± 1.2 g; in series [1] (B16F10, IMMH-010 maleate 5 mg/kg PO once daily 19 days), 20.0 ± 1.2 g; in series [1] (B16F10, IMMH-010 maleate 10 mg/kg PO once daily 19 days) it was 20.1 ± 1.0 g. The “Body Weight (g) X ± SD Start” value in series [1] (B16F10, IMMH-010 maleate 1.25 mg/kg PO once daily) worked out at 17.09 ± 0.63 g; in series [1] (B16F10, IMMH-010 maleate 2.5 mg/kg PO once daily), 16.86 ± 0.57 g; in series [1] (B16F10, IMMH-010 maleate 5 mg/kg PO once daily), 17.09 ± 0.81 g; in series [1] (B16F10, IMMH-010 maleate 10 mg/kg PO once daily) it was 17.15 ± 0.50 g. Further, in series [1] (B16F10 model, IMMH-010 maleate PO once a day for 19 days), the “effect on body weight” value is listed as “without weight loss”. For the same compound, the “estimated CLhep” value is 37.2 mL/min/kg in series [2] (from monkey liver S9) and 36.4 mL/min/kg in series [3] (from dog liver S9). For the same compound, the half-life at 10 μM in series [2] (pH 7.4, monkey liver S9 0.5 mg protein/mL, 10 μM, NADPH) turned out to be 8.28 min; in series [3] (pH 7.4, dog liver S9 0.5 mg protein/mL, 10 μM, NADPH) it was 4.9 min. Also, the pIC50 (usually the IC50 on a negative log10 scale, so that one unit is a factor of ten) with PD-1/PD-L1 is 7.00 to 8.00. In addition, the plasma stability entry in series [4] and in series [6] was “decreased time-dependently” throughout. Further, the AUC (as a rule, concentration integrated over time) in series [5] came out at 47.9 ng·h/mL. The concentration in series [5] peaked (Cmax) at 9.46 ng/mL. In series [5] (read-out: mean t1/2β in plasma (converted)), the half-life was 310 min. The Tmax in series [5] (read-out: observed time to peak concentration) is at most 90 min.
